The subject of the assay is spleen cells±ConA. Briefly: Proliferation responses of splenocytes ±Con A, [3H]thymidine incorporation. The class given is cell-based, mice. As to conditions: for Con A1 / Con A2 / No Con A: incorporated radioactivity. How it is done: Spleen cells obtained from native or concanavalin A (Con A)-treated mice were examined in-vitro for their response to T-cell-dependent mitogens. Cells were plated in quadruplicate in 96-well, flat-bottom, microtiter plates (4×10^5 cells/0.2 ml/well) in RPMI-1640 medium supplemented with 5% heat inactivated FCS, 2 mM L-glutamine, 100 U/ml penicillin, […] streptomycin and various concentrations of compound 10 ([…]). All plates were incubated for 48 h in humidified atmosphere of 5% CO2 in air at 37° C., and then pulsed for 18 h with […] ^3[H] thymidine. Cells from each microculture were harvested on fiberglass filters using a multiharvester, and incorporated radioactivity was measured using standard scintillation techniques.
In general terms: Uptake of a labelled nucleoside into DNA is a usual measure of proliferation.

SMILES strings stand for the structures.

`CC(CO)COCC(C)OCC(C)OCC(C)OCC(C)OCC(C)OCC(C)OCC(C)OCC(C)OCC(C)OCC(C)OCC(C)OCC(C)OCC(C)OCC(C)OCC(C)OCC(C)OCC(Cc1ccccc1)NC(=O)CCc1ccc(O)cc1` (stereo not shown) [Compound 10]: the “Con A1” value worked out at 1280 (100 pg/ml); 733 (1 ng/ml); 880 (100 ng/ml); 986 (1 μg/ml); 598 (100 μg/ml). Further, the “Con A2” value (100 pg/ml) is recorded as 3481; the “Con A2” value (1 ng/ml) is on record as 3609; the “Con A2” value (100 ng/ml) is given as 2489; the “Con A2” value (1 μg/ml) is recorded as 2156; the “Con A2” value (100 μg/ml) is reported as 1380. Besides, the “No Con A” value by setting is: (100 pg/ml) 271; (1 ng/ml) 284; (100 ng/ml) 274; (1 μg/ml) 333; (100 μg/ml) 170. The “effect on the proliferation of the splenocytes” value (incubation with compound (Table 1)) is on record as “significant inhibition”.

For the origin of these results see patent US8309606B2, “Compounds for use in the treatment of autoimmune diseases, immuno-allergical diseases and organ or tissue transplantation rejection” (Novaremed Limited, priority 2002, dated 2012).
